Results taken from ChEMBL document CHEMBL4825732, “Discovery of the Selective Protein Kinase C-θ Kinase Inhibitor, CC-90005” (J Med Chem, 2021).

Experiments:
[1] = Volume of distribution at steady state in iv dosed rat; assay type: ADME, organism-based; details: in vivo, read-out: Vdss
[2] = Apparent permeability across apical to basolateral side in human Caco2 cells; assay type: ADME, cell-based; details: Caco-2
[3] = Oral bioavailability in mouse at 10 mg/kg; assay type: ADME, organism-based; details: in vivo
[4] = Oral bioavailability in rat at 10 mg/kg; assay type: ADME, organism-based; details: in vivo
[5] = Oral bioavailability in dog at 10 mg/kg; assay type: ADME, organism-based, Canis lupus familiaris; details: in vivo

Structure (SMILES): CC1(C)CC(Nc2cc(NCc3cnccc3C(F)(F)F)ncc2C#N)CC(C)(C)N1
- Vd [1]: 27.7 L/kg

Structure (SMILES): CC(C)(F)c1ncncc1CNc1ncc(C#N)c(N[C@@H]2C[C@H](O)C2(C)C)n1
- Papp A→B [2]: 36 ×10⁻⁶ cm/s

Structure (SMILES): CC1(C)[C@@H](O)C[C@H]1Nc1nc(NCc2cncnc2OCC(F)F)ncc1C#N
- Papp A→B [2]: 11 ×10⁻⁶ cm/s

Structure (SMILES): CC(F)(F)COc1ncncc1CNc1ncc(C#N)c(N[C@@H]2CC[C@H](O)C(C)(C)C2)n1
- Papp A→B [2]: 27 ×10⁻⁶ cm/s
- bioavailability [3]: 17%
- bioavailability [4]: 66%
- bioavailability [5]: 46%
